Read-outs that look alike come from different tables or passages of the source.
Biological target: Rhesus PDE2A3 (Macaca mulatta, UniProt B3VTJ2)
Assay: PDE2 fluorescence polarization (IMAP FP) inhibition assay, rhesus enzyme
Type: biochemical, rhesus macaque
Experimental: The activity of the compounds in accordance with the present invention as PDE2 inhibitors may be readily determined using a fluorescence polarization (FP) methodology (Huang, W., et al., J. Biomol Screen, 2002, 7: 215).
In a typical experiment the PDE2 inhibitory activity of the compounds of the present invention was determined in accordance with the following experimental method. Rhesus PDE2A3 was amplified from rhesus macaque brain cDNA (Biochain Institute, Hayward, Calif.) using primers based on human PDE2A sequence (accession NM_002599.3) where the forward primer containing a Kozak consensus was 5′-[…]-3′ and the reverse primer was 5′-[…]-3′. Amplification with Easy-A High-Fidelity PCR cloning enzyme (Stratagene, La Jolla, Calif.) was 95° C. for 2 minutes followed by thirty three cycles of 95° C. for 40 seconds, 52° C. for 30 seconds, and 72° C. for 2 minutes 48 seconds. Final extension was 72° C. for 7 minutes. The PCR product was TA cloned into pcDNA3.3-TOPO (Invitrogen, Carlsbad, Calif.) according to standard protocol. A consensus sequence was developed from multiple clones and then deposited into GenBank (EU812167). AD293 cells (Stratagene, La Jolla, Calif.) with 70-80% confluency were transiently transfected with rhesus PDE2A3/pcDNA3.3-TOPO using Lipofectamine 2000 according to manufacturer specifications (Invitrogen, Carlsbad, Calif.). Cells were harvested 48 hours post-transfection and lysed by sonication (setting 3, 10×5 sec pulses) in a buffer containing 20 mM HEPES pH 7.4, 1 mM EDTA and Complete Protease Inhibitor Cocktail Tablets (Roche, Indianapolis, Ind.). Lysate was collected by centrifugation at 75,000×g for 20 minutes at 4° C. and supernatant utilized for evaluation of PDE2 activity. The fluorescence polarization assay for cyclic nucleotide phosphodiesterases was performed using an IMAP® FP kit supplied by Molecular Devices, Sunnyvale, Calif. (product # R8139). […] Assays were performed at room temperature in 384-well microtiter plates with an incubation volume of 20.2 μL. Solutions of test compounds were prepared in DMSO and serially diluted with DMSO to yield 8 μL of each of 10 solutions differing by 3-fold in concentration, at 32 serial dilutions per plate. […] 0% of inhibition is determined by using DMSO (1% final concentrations).
A Labcyte Echo 555 (Labcyte, Sunnyvale, Calif.) is used to dispense 200 nL from each well of the titration plate to the 384 well assay plate. Ten microliters of a solution of enzyme (1/2000 final dilution from aliquots; sufficient to produce 20% substrate conversion) was added to the assay plate. Next 10 uL of a separate solution of the substrate FAM-labeled cAMP (50 nM final concentration product # R7506 from Molecular Devices) and the activator cGMP (1 uM final concentration), prepared in the assay buffer (10 mM Tris HCl, pH 7.2, 10 mM MgCl2, 0.05% NaN3 0.01% Tween-20, and 1 mM DTT) was added to the assay plate and shaken to mix. The reaction is allowed to proceed at room temperature for 60 minutes. A binding solution is then made from the kit components, comprised of 80% Solution A, 20% Solution B and binding reagent at a volume of 1/600 the total binding solution. The enzymatic reaction is stopped by addition of 60 μL of the binding solution to each well of the assay plates and the plates are sealed and shaken for 30 seconds. The plate was incubated at room temperature for at least one hour prior to determining the fluorescence polarization (FP). The parallel and perpendicular fluorescence of each well of the plate was measured using a Tecan Genios Pro plate reader (Tecan, Switzerland) or Perkin Elmer EnVision™ plate reader (Waltham, Mass.). Fluorescence polarization (mP) was calculated from the parallel (S) and perpendicular (P) fluorescence of each sample well and the analogous values for the median control well, containing only substrate (So and Po), using the following equation: Polarization (mP)=1000*(S/So−P/Po)/(S/So+P/Po).

[1] = Rhesus PDE2, Lab A, read-out: Rhesus PDE2 Ki (nM) - Lab A
[2] = Rhesus PDE2, Lab B, read-out: Rhesus PDE2 Ki (nM) - Lab B

Sequence of Rhesus PDE2A3 (B3VTJ2 1-941): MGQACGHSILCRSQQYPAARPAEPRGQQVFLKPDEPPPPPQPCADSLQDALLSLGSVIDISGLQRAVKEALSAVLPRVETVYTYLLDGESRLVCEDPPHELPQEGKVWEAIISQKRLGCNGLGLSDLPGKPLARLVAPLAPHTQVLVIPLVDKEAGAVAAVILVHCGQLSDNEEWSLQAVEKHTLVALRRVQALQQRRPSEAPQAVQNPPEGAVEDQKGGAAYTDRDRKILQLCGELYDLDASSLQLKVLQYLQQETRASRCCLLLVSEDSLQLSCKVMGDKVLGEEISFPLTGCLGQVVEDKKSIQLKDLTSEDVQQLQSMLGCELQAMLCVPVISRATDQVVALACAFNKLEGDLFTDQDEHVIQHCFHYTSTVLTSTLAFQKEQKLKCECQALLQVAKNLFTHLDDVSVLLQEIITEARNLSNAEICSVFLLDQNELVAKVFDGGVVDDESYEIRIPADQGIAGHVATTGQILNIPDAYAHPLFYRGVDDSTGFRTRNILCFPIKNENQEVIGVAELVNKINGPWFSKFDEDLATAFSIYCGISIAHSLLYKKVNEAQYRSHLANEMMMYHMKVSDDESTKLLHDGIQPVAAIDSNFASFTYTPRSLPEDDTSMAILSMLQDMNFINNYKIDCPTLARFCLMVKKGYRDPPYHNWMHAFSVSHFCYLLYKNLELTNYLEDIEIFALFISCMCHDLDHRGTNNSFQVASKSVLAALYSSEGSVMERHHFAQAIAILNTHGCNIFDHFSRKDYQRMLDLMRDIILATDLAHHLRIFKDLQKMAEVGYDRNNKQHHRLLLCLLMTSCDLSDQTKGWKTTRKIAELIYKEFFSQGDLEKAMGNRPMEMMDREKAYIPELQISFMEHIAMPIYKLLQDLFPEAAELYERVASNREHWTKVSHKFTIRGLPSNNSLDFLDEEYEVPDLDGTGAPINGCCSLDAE

Row | Structure (SMILES) | Ki [1] | Ki [2]
1 | COc1ccc([C@@H](C)NC(=O)c2cc(=O)[nH]c(C3CC3)n2)cc1 [Example 216, 2-cyclopropyl-N-[(1R)-1-(4-methoxyphenyl)ethyl]-6-oxo-1,6-dihydropyrimidine-4-carboxamide] | 247 nM | –
2 | COc1ccc(C(NC(=O)c2cc(=O)[nH]c(-c3ncccn3)n2)c2ccc(C(F)(F)F)cc2)cc1 (centres unmarked) [Example 87, N-{(4-methoxyphenyl)[4-(trifluoromethyl)phenyl]methyl}-6-oxo-1,6-dihydro-2,2′-bipyrimidine-4-carboxamide] | 1920 nM | –
3 | Cc1nc(C(=O)N[C@@H](c2ccc(C(F)(F)F)c([N+](=O)[O-])c2)C(C)(C)C)cc(=O)[nH]1 [Example 531, N-{(1R)-2,2-dimethyl-1-[3-nitro-4-(trifluoromethyl)phenyl]propyl}-2-methyl-6-oxo-1,6-dihydropyrimidine-4-carboxamide] | – | 32 nM
4 | CC(NC(=O)c1cc(=O)[nH]c(-c2ccccc2)n1)c1ccc(-c2ccncc2)cc1 (centres unmarked) [Example 384, 6-oxo-2-phenyl-N-[1-(4-pyridin-4-ylphenyl)ethyl]-1,6-dihydropyrimidine-4-carboxamide] | – | 319 nM
5 | O=C(N[C@@H]1CCCc2cc(C(F)(F)F)ccc21)c1cc(=O)[nH]c(-c2ncccn2)n1 [Example 433, 6-oxo-N-[(1R)-6-(trifluoromethyl)-1,2,3,4-tetrahydronaphthalen-1-yl]-1,6-dihydro-2,2′-bipyrimidine-4-carboxamide] | – | ~1430 nM
6 | CC(NC(=O)c1cc(=O)[nH]c(-c2ccccc2)n1)c1ccc(C#N)cc1 (centres unmarked) [Example 370, N-[1-(4-cyanophenyl)ethyl]-6-oxo-2-phenyl-1,6-dihydropyrimidine-4-carboxamide] | 334 nM | 533 nM
7 | CC(C)(NC(=O)c1cc(=O)[nH]c(-c2ncccn2)n1)c1ccc(S(F)(F)(F)(F)F)cc1 [Example 678, N-{1-methyl-1-[4-(pentafluoro-λ^6-sulfanyl)phenyl]ethyl}-6-oxo-1,6-dihydro-2,2′-bipyrimidine-4-carboxamide] | – | 501 nM
8 | COc1cc(C(C)NC(=O)c2cc(=O)[nH]c(-c3ncccn3)n2)ccc1C(F)(F)F (centres unmarked) [Example 104, N-{1-[3-methoxy-4-(trifluoromethyl)phenyl]ethyl}-6-oxo-1,6-dihydro-2,2′-bipyrimidine-4-carboxamide] | 524 nM | –
9 | CC(NC(=O)c1cc(=O)[nH]c(-c2ccccc2)n1)c1cccc(-c2ccccc2)c1 (centres unmarked) [Example 410, N-(1-biphenyl-3-ylethyl)-6-oxo-2-phenyl-1,6-dihydropyrimidine-4-carboxamide] | – | 1960 nM
10 | CC(C)(NC(=O)c1cc(=O)[nH]c(-c2ccccc2)n1)c1ccc(F)cc1 [Example 349, N-[1-(4-fluorophenyl)-1-methylethyl]-6-oxo-2-phenyl-1,6-dihydropyrimidine-4-carboxamide] | ~525 nM | 713 nM
11 | Cc1nc(C(=O)N[C@H](C)c2ccc(-c3ccc(C(F)(F)F)cc3)cc2)cc(=O)[nH]1 [Example 318, 2-methyl-6-oxo-N-{(1R)-1-[4′-(trifluoromethyl)biphenyl-4-yl]ethyl}-1,6-dihydropyrimidine-4-carboxamide] | 73 nM | 189 nM
12 | CC(NC(=O)c1cc(=O)[nH]c(-c2ccccc2)n1)c1ccccc1-c1ccccc1 (centres unmarked) [Example 416, N-(1-biphenyl-2-ylethyl)-6-oxo-2-phenyl-1,6-dihydropyrimidine-4-carboxamide] | – | 1770 nM
13 | Cc1nc(C(=O)N[C@@H](c2ccc(C(F)(F)F)cc2)[C@H](C)O)cc(=O)[nH]1 [Example 64, N-((1S,2S)-2-hydroxy-1-(4-(trifluoromethyl)phenyl)propyl)-2-methyl-6-oxo-1,6-dihydropyrimidine-4-carboxamide] | ~39300 nM | –
14 | COc1cc(-c2ccc([C@@H](C)NC(=O)c3cc(=O)[nH]c(C)n3)cc2)ccn1 [Example 317, (R)—N-(1-(4-(2-methoxypyridin-4-yl)phenyl)ethyl)-2-methyl-6-oxo-1,6-dihydropyrimidine-4-carboxamide] | 1810 nM | –
15 | CC[C@@H](NC(=O)c1cc(=O)[nH]c(C(C)(C)c2ccc(OC)cc2)n1)c1ccc(C(F)(F)F)c(F)c1 [Example 503, N-{(1R)-1-[3-fluoro-4-(trifluoromethyl)phenyl]propyl}-2-[1-(4-methoxyphenyl)-1-methylethyl]-6-oxo-1,6-dihydropyrimidine-4-carboxamide] | – | 111 nM
16 | Cc1cc(C(F)(F)F)ccc1C(C)NC(=O)c1cc(=O)[nH]c(-c2ncccn2)n1 (centres unmarked) [Example 90, N-{1-[2-methyl-4-(trifluoromethyl)phenyl]ethyl}-6-oxo-1,6-dihydro-2,2′-bipyrimidine-4-carboxamide] | 732 nM | –
17 | CN(Cc1cc(F)c(F)c(F)c1)C(=O)c1cc(=O)[nH]c(C2CC2)n1 [Example 206, 2-cyclopropyl-N-methyl-6-oxo-N-(3,4,5-trifluoromethyl)-1,6-dihydropyrimidine-4-carboxamide] | 24300 nM | –
18 | Cc1nc(C(=O)NC(c2ccccc2)c2ccc(C(F)(F)F)cc2)cc(=O)[nH]1 (centres unmarked) [Example 34, 2-methyl-6-oxo-N-{phenyl[4-(trifluoromethyl)phenyl]methyl}-1,6-dihydropyrimidine-4-carboxamide] | 1420 nM | –
19 | CCOC(=O)c1ccc([C@@H](C)NC(=O)c2cc(=O)[nH]c(-c3ncccn3)n2)cc1 [Example 432, ethyl 4-[(1R)-1-{[(6-oxo-1,6-dihydro-2,2′-bipyrimidin-4-yl)carbonyl]amino}ethyl]benzoate] | – | > 2970 nM
20 | COc1cc(C(C)NC(=O)c2cc(=O)[nH]c(C)n2)ccc1C(F)(F)F (centres unmarked) [Example 27, N-{1-[3-methoxy-4-(trifluoromethyl)phenyl]ethyl}-2-methyl-6-oxo-1,6-dihydropyrimidine-4-carboxamide] | 1160 nM | –
21 | Cc1nc(C(=O)NC(C)(c2ccc(S(F)(F)(F)(F)F)cc2)C(C)C)cc(=O)[nH]1 (single isomer, unassigned) [Example 662, (S)- or (R)-N-{1,2-dimethyl-1-[4-(pentafluoro-λ^6-sulfanyl)phenyl]propyl}-2-methyl-6-oxo-1,6-dihydropyrimidine-4-carboxamide] | – | ~1220 nM
22 | Cc1nc(C(=O)NC(C)(C)c2ccc(S(F)(F)(F)(F)F)cc2)cc(=O)[nH]1 [Example 677, 2-methyl-N-{1-methyl-1-[4-(pentafluoro-λ^6-sulfanyl)phenyl]ethyl}-6-oxo-1,6-dihydropyrimidine-4-carboxamide] | – | 129 nM
23 | CC(NC(=O)c1cc(=O)[nH]c(C2CC2)n1)c1ccc(C(F)(F)F)cn1 (centres unmarked) [Example 238, 2-cyclopropyl-6-oxo-N-{1-[5-(trifluoromethyl)pyridin-2-yl]ethyl}-1,6-dihydropyrimidine-4-carboxamide] | 683 nM | –
24 | CC(NC(=O)c1cc(=O)[nH]c(-c2ccccc2)n1)c1ccc(O)cc1 (centres unmarked) [Example 369, N-[1-(4-hydroxyphenyl)ethyl]-6-oxo-2-phenyl-1,6-dihydropyrimidine-4-carboxamide] | – | 8780 nM
25 | CC(NC(=O)c1cc(=O)[nH]c(-c2ccccc2)n1)c1ccccc1C(F)(F)F (centres unmarked) [Example 169, 6-oxo-2-phenyl-N-{1-[2-(trifluoromethyl)phenyl]ethyl}-1,6-dihydropyrimidine-4-carboxamide] | 3420 nM | –
26 | CC(NC(=O)c1cc(=O)[nH]c(-c2ccccc2)n1)c1ncc(C(F)(F)F)cn1 (centres unmarked) [Example 170, 6-oxo-2-phenyl-N-{1-[5-(trifluoromethyl)pyrimidin-2-yl]ethyl}-1,6-dihydropyrimidine-4-carboxamide] | 2340 nM | –

— US9815796B2 (Merck Sharp & Dohme Corp., priority 2013, dated 2017)
